Test results from PubChem BioAssay (NCI).
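How tested: cells in 96-well plates exposed to compound for 48 hours at five concentrations. GI50 = concentration required for 50% inhibition of growth. TGI: total growth inhibition.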

Key:
Assay in all cases: inhibition of tumour cell growth, NCI panel, 48 h
SR leukemia = test system: SR leukemia
HT29 colon = test system: HT29 colon
SK-MEL-5 melanoma = test system: SK-MEL-5 melanoma
OVCAR-5 ovarian = test system: OVCAR-5 ovarian
SNB-75 CNS = test system: SNB-75 CNS
UACC-62 melanoma = test system: UACC-62 melanoma
NCI-H23 lung = test system: NCI-H23 lung
UO-31 renal = test system: UO-31 renal
MALME-3M melanoma = test system: MALME-3M melanoma
IGROV1 ovarian = test system: IGROV1 ovarian

## CN(C)CCCn1c(=O)c2ccccc2c2ccccc21
SR leukemia
  GI50: 12.8 µM
  TGI: > 100 µM
HT29 colon
  GI50: 5.74 µM
  TGI: 33.4 µM
SK-MEL-5 melanoma
  GI50: 12.3 µM
  TGI: 24.9 µM
OVCAR-5 ovarian
  GI50: 22.6 µM
  TGI: 69.7 µM
SNB-75 CNS
  GI50: 13.9 µM
  TGI: 28.6 µM
UACC-62 melanoma
  GI50: 17 µM
  TGI: 33.6 µM
NCI-H23 lung
  GI50: 17.6 µM
  TGI: 46 µM

## C1CCC([PH+](C2CCCCC2)C2CCCCC2[PH+](C2CCCCC2)C2CCCCC2)CC1.[Au].[CH-]1CCCCC1CC1CCCC[N-]1 (centres undefined)
UO-31 renal
  GI50: 1.3 µM
  TGI: 2.61 µM
HT29 colon
  GI50: 0.342 µM
  TGI: 1.98 µM
SK-MEL-5 melanoma
  GI50: 0.288 µM
  TGI: 0.813 µM
MALME-3M melanoma
  GI50: 0.192 µM
  TGI: 0.739 µM
OVCAR-5 ovarian
  GI50: 0.452 µM
  TGI: 2.01 µM
SNB-75 CNS
  GI50: 0.23 µM
  TGI: 0.971 µM
UACC-62 melanoma
  GI50: 0.249 µM

## C/C(=C\c1ccc2ccccc2c1)[N+](=O)[O-]
UO-31 renal
  GI50: 1.39 µM
  TGI: 2.9 µM
SR leukemia
  GI50: 0.409 µM
  TGI: 2.56 µM
HT29 colon
  GI50: 2.18 µM
  TGI: 4.46 µM
SK-MEL-5 melanoma
  GI50: 1.79 µM
  TGI: 3.87 µM
MALME-3M melanoma
  GI50: 2.07 µM
  TGI: 3.97 µM
OVCAR-5 ovarian
  GI50: 1.87 µM
  TGI: 3.63 µM
SNB-75 CNS
  GI50: 1.84 µM
  TGI: 4.21 µM
UACC-62 melanoma
  GI50: 1.76 µM
  TGI: 3.26 µM

## CO[C@H]1CC(O[C@@H]2/C(C)=C/C[C@@H]3C[C@@H](C[C@]4(C=C[C@H](C)[C@@H](C5CCCCC5)O4)O3)OC(=O)[C@@H]3C=C(C)[C@@H](O)[C@H]4OC/C(=C\C=C\[C@@H]2C)[C@]43O)O[C@@H](C)C1O[C@H]1C[C@H](OC)[C@@H](O)[C@H](C)O1 (some centres undefined)
UO-31 renal
  GI50: 1.4 µM
  TGI: 2.71 µM
SR leukemia
  GI50: 1.86 µM
  TGI: 4.62 µM
HT29 colon
  GI50: 1.87 µM
  TGI: 3.85 µM
SK-MEL-5 melanoma
  GI50: 1.41 µM
  TGI: 2.77 µM
SNB-75 CNS
  GI50: 1.45 µM
  TGI: 3.6 µM

## N#CC1(C(N)=O)C(c2ccc(Cl)cc2)CC(=O)CC1c1ccc(Cl)cc1 (centres undefined)
UO-31 renal
  GI50: 16.3 µM
  TGI: 32 µM
HT29 colon
  GI50: 15.5 µM
  TGI: 29.5 µM
SK-MEL-5 melanoma
  GI50: 17.4 µM
  TGI: 31.1 µM
IGROV1 ovarian
  GI50: 18.1 µM
  TGI: 33.7 µM
MALME-3M melanoma
  GI50: 15.7 µM
  TGI: 33.4 µM
OVCAR-5 ovarian
  GI50: 16.4 µM
  TGI: 33.1 µM
UACC-62 melanoma
  GI50: 13.6 µM
  TGI: 27.2 µM

## COc1ccc(-c2[nH]c3ccccc3c2-c2ccc(OC)cc2)cc1
UO-31 renal
  GI50: 3.29 µM
  TGI: 15.5 µM
HT29 colon
  GI50: 2.99 µM
  TGI: 11.9 µM
SK-MEL-5 melanoma
  GI50: 3.65 µM
  TGI: 15.2 µM
IGROV1 ovarian
  GI50: 11.2 µM
  TGI: 27.5 µM
OVCAR-5 ovarian
  GI50: 15.4 µM
  TGI: 33.9 µM
SNB-75 CNS
  GI50: 1.47 µM
  TGI: 6.61 µM
UACC-62 melanoma
  GI50: 6.25 µM
  TGI: 22 µM
NCI-H23 lung
  GI50: 6.26 µM
  TGI: 26.2 µM

## O=C(/C=C/c1cc2ccccc2[nH]c1=O)/C=C/c1cc2ccccc2[nH]c1=O
UO-31 renal
  GI50: > 100 µM
  TGI: > 100 µM
SR leukemia
  GI50: 6.42 µM
  TGI: > 100 µM
SK-MEL-5 melanoma
  GI50: 23.5 µM
  TGI: > 100 µM
IGROV1 ovarian
  GI50: > 19.7 µM
  TGI: > 49.3 µM
MALME-3M melanoma
  GI50: > 59.6 µM
  TGI: > 100 µM
OVCAR-5 ovarian
  GI50: > 49 µM
  TGI: > 100 µM
SNB-75 CNS
  GI50: > 26.3 µM
  TGI: > 67.5 µM
UACC-62 melanoma
  GI50: 16.9 µM
  TGI: 97.8 µM
NCI-H23 lung
  GI50: 9.25 µM
  TGI: 48.9 µM

## O=C1CC(c2c[nH]c3ccccc23)C(=O)N1 (centres undefined)
UO-31 renal
  TGI: > 100 µM
HT29 colon
  TGI: > 100 µM
SK-MEL-5 melanoma
  TGI: > 100 µM
IGROV1 ovarian
  TGI: > 100 µM
MALME-3M melanoma
  TGI: > 100 µM
OVCAR-5 ovarian
  TGI: > 100 µM
SNB-75 CNS
  TGI: > 100 µM
UACC-62 melanoma
  TGI: > 100 µM
NCI-H23 lung
  TGI: > 100 µM

## O=C1OC(=O)C(=C\c2ccc3c(c2)OCO3)/C1=C/c1ccc2c(c1)OCO2
UO-31 renal
  TGI: > 100 µM
SR leukemia
  TGI: > 90.8 µM
HT29 colon
  TGI: > 100 µM
SK-MEL-5 melanoma
  TGI: > 100 µM
IGROV1 ovarian
  TGI: > 100 µM
MALME-3M melanoma
  TGI: > 100 µM
OVCAR-5 ovarian
  TGI: > 100 µM
UACC-62 melanoma
  TGI: > 100 µM
NCI-H23 lung
  TGI: > 100 µM
